# From US20240041042A1, “1-(PYRIDYL)-5-AZINYLPYRAZOLE DERIVATIVES, AND THEIR USE FOR CONTROL OF UNDESIRED PLANT GROWTH” (Bayer Aktiengesellschaft, priority 2020, published 2024)
# Where two headings read alike, the source gives them in different places.
# Experiments:
# Type in all cases: in vivo
# [1] = tested on: Digitaria sanguinalis (DIGSA); test: Post-emergence herbicidal action against DIGSA; settings: visual rating about 3 weeks after treatment
# Method in brief: (§1)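 Post-emergence greenhouse spray, one-leaf stage, 600 l/ha water plus 0.5% additive; WP or EC formulations; application rates 320 g/ha or lower. Visual % damage vs untreated controls at ~3 weeks.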
# [2] = tested on: Echinochloa crus-galli (ECHCG); test: Post-emergence herbicidal action against ECHCG
# Method in brief: as §1
# [3] = tested on: Viola tricolor (VIOTR); test: Post-emergence herbicidal action against VIOTR
# Method in brief: as §1
# [4] = tested on: Pharbitis purpurea (PHBPU); test: Post-emergence herbicidal action against PHBPU
# Method in brief: as §1
# [5] = tested on: Alopecurus myosuroides (ALOMY); test: Post-emergence herbicidal action against ALOMY; settings: visual rating about 3 weeks after treatment vs untreated controls (100% = plants have died, 0% = like control plants)
# Method in brief: as §1
# [6] = tested on: Oryza sativa (ORYSA); settings: crop plant compatibility
# Method in brief: (§2)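 Test crops were treated 2 to 3 weeks after sowing, once they reached one leaf, by spraying compound in water with 0.5% additive at 600 l/ha. Visual scoring compared them with untreated controls roughly 3 weeks on, and appendices a, b and c denote different doses.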
# [7] = tested on: Triticum aestivum (TRZAS); settings: crop plant compatibility, effect vs untreated controls
# Method in brief: as §2
# [8] = tested on: Zea mays (ZEAMX); settings: for Post-emergence action against ZEAMX in % (crop plant compatibility): 20 g/ha, effect in comparison to untreated controls; for Post-emergence action against ZEAMX in %: crop plant compatibility, effect vs untreated controls
# Method in brief: as §2
# [9] = tested on: Lolium rigidum (LOLRI); test: Post-emergence herbicidal action against LOLRI
# Method in brief: as §1
# [10] = tested on: Setaria viridis (SETVI); test: Post-emergence herbicidal action against SETVI
# Method in brief: as §1
# [11] = tested on: Matricaria inodora (MATIN); test: Post-emergence herbicidal action against MATIN
# Method in brief: as §1
# [12] = tested on: Verconica persica (VERPE); test: Post-emergence herbicidal action against VERPE
# Method in brief: as §1
# [13] = tested on: Amaranthus retroflexus (AMARE); test: Post-emergence herbicidal action against AMARE
# Method in brief: as §1
# [14] = tested on: Polygonum convolvulus (POLCO); test: Post-emergence herbicidal action against POLCO
# Method in brief: as §1
# [15] = tested on: Abutilon theophrasti (ABUTH); test: Post-emergence herbicidal action against ABUTH; settings: visual rating about 3 weeks after treatment vs untreated controls (100% = plants have died, 0% = like control plants)
# Method in brief: as §1
# [16] = tested on: Avena fatua (AVEFA); test: Post-emergence herbicidal action against AVEFA; settings: visual rating about 3 weeks after treatment
# Method in brief: as §1
# [17] = 20 g/ha, effect vs untreated controls
# [18] = 80 g/ha, effect in comparison to untreated controls
# [19] = 320 g/ha, visual rating about 3 weeks after treatment
# [20] = 320 g/ha, effect in comparison to untreated controls
Compound,Post-emergence action against DIGSA in % ([1]; 320 g/ha),Post-emergence action against ECHCG in % ([2]; dosage 320 g/ha),Post-emergence action against VIOTR in % ([3]; 80 g/ha),Post-emergence action against VIOTR in % ([3]; 320 g/ha),Post-emergence action against PHBPU in % ([4]; dosage 320 g/ha),Post-emergence action against ALOMY in % ([5]; 320 g/ha),"Post-emergence action against ORYSA in % [6, 17]","Post-emergence action against ORYSA in % [6, 18]",Post-emergence action against TRZAS in % ([7]; 20 g/ha),Post-emergence action against ZEAMX in % (crop plant compatibility) [8],Post-emergence action against ZEAMX in % ([8]; 80 g/ha),Post-emergence action against LOLRI in % ([9]; dosage 320 g/ha),Post-emergence action against SETVI in % ([10]; dosage 320 g/ha),Post-emergence action against MATIN in % ([11]; dosage 320 g/ha),"Post-emergence action against VERPE in % ([12]; 320 g/ha, VERPE)",Post-emergence action against VERPE in % ([12]; dosage 80 g/ha),"Post-emergence action against AMARE in % [13, 19]",Post-emergence action against POLCO in % ([14]; dosage 320 g/ha),Post-emergence action against AVEFA in % ([16]; 320 g/ha),Post-emergence action against ECHCG in % ([2]; dosage 80 g/ha),also measured
CCOC(=O)COc1nn(-c2ncccc2F)c(-c2ccnc(F)c2)c1Br [Example I-136],80%,80%,80%,80%,90%,90%,10%,20%,10%,10%,10%,80%,90%,80%,–,–,–,–,–,–,Post-emergence action against ZEAMX in % ([8]; 320 g/ha): 20%
O=C(O)COc1nn(-c2ncccc2F)c(-c2ccnc(F)c2)c1Br [Example I-139],90%,80%,80%,90%,80%,90%,0%,0%,0%,0%,0%,–,–,–,90%,80%,90%,90%,–,–,"Post-emergence action against AMARE in % ([13]; 80 g/ha, visual rating about 3 weeks after treatment vs untreated controls (100% = plants have died, 0% = like control plants)): 80%; Post-emergence action against ALOMY in % ([5]; 80 g/ha): 90%; Post-emergence action against ABUTH in % ([15]; 320 g/ha): 80%; Post-emergence action against ORYSA in % [6, 20]: 10%; Post-emergence action against ZEAMX in % ([8]; 320 g/ha): 10%"
C[C@@H](Oc1nn(-c2ncccc2F)c(-c2ccnc(F)c2)c1Br)C(=O)O [Example I-140],80%,80%,90%,90%,–,100%,0%,0%,10%,–,–,90%,–,–,90%,–,90%,90%,90%,–,"Post-emergence action against ABUTH in % ([15]; 320 g/ha): 80%; Post-emergence action against ORYSA in % [6, 20]: 10%"
O=C(O)COc1nn(-c2ncccc2F)c(-c2cncc(F)c2)c1Cl [Example I-169],90%,90%,–,80%,90%,–,0%,10%,0%,10%,10%,80%,80%,90%,90%,80%,–,80%,80%,80%,Post-emergence action against POLCO in % ([14]; dosage 80 g/ha): 80%; Post-emergence action against PHBPU in % ([4]; dosage 80 g/ha): 80%; Post-emergence action against MATIN in % ([11]; dosage 80 g/ha): 80%
O=C(COc1nn(-c2ncccc2F)c(-c2ccc(F)nc2)c1C1CC1)OCC1CCCC1 [Example I-251],90%,90%,–,90%,–,80%,10%,–,10%,20%,20%,90%,90%,90%,90%,80%,90%,–,90%,80%,Post-emergence action against DIGSA in % ([1]; 80 g/ha): 80%; Post-emergence action against LOLRI in % ([9]; dosage 80 g/ha): 90%
O=C(O)COc1nn(-c2ccccn2)c(-c2ccc(F)nc2)c1Cl [Example I-266],90%,90%,80%,90%,90%,90%,20%,–,20%,–,–,90%,80%,90%,90%,80%,90%,90%,–,80%,Post-emergence action against POLCO in % ([14]; dosage 80 g/ha): 80%; Post-emergence action against PHBPU in % ([4]; dosage 80 g/ha): 80%; Post-emergence action against MATIN in % ([11]; dosage 80 g/ha): 80%
O=C(COc1nn(-c2ncccc2F)c(-c2ccc(F)nc2)c1C1CC1)ON=C1CCCC1 [Example I-380],90%,90%,90%,90%,–,90%,0%,10%,20%,0%,20%,90%,90%,–,90%,80%,–,80%,90%,80%,Post-emergence action against DIGSA in % ([1]; 80 g/ha): 80%; Post-emergence action against AVEFA in % ([16]; 80 g/ha): 90%; Post-emergence action against ABUTH in % ([15]; 80 g/ha): 80%; Post-emergence action against ABUTH in % ([15]; 320 g/ha): 90%; Post-emergence action against LOLRI in % ([9]; dosage 80 g/ha): 90%; Post-emergence action against SETVI in % ([10]; dosage 80 g/ha): 80%
COC(=O)CCOC(=O)COc1nn(-c2ncccc2F)c(-c2ccc(F)nc2)c1C1CC1 [Example I-383],90%,90%,80%,90%,–,90%,–,–,20%,10%,20%,90%,80%,80%,90%,80%,80%,–,80%,80%,Post-emergence action against DIGSA in % ([1]; 80 g/ha): 80%; Post-emergence action against AVEFA in % ([16]; 80 g/ha): 80%; Post-emergence action against LOLRI in % ([9]; dosage 80 g/ha): 80%; Post-emergence action against SETVI in % ([10]; dosage 80 g/ha): 80%
COC(=O)CCOC(=O)COc1nn(-c2cccnc2C)c(-c2cncc(F)c2)c1Br [II-41],80%,90%,80%,90%,90%,90%,0%,0%,0%,0%,0%,–,90%,80%,90%,90%,80%,–,90%,–,"Post-emergence action against PHBPU in % ([4]; dosage 80 g/ha): 80%; Post-emergence action against ABUTH in % ([15]; 320 g/ha): 80%; Post-emergence action against ORYSA in % [6, 20]: 0%; Post-emergence action against TRZAS in % ([7]; 80 g/ha): 0%"
Cc1ncccc1-n1nc(OCC(=O)O)c(Cl)c1-c1cncc(F)c1 [II-42],80%,90%,80%,90%,90%,90%,0%,0%,0%,20%,–,–,90%,80%,90%,80%,90%,80%,90%,–,"Post-emergence action against ALOMY in % ([5]; 80 g/ha): 80%; Post-emergence action against ORYSA in % [6, 20]: 0%; Post-emergence action against TRZAS in % ([7]; 80 g/ha): 20%"
